From patent US20250019387A1 (Frontier Medicines Corporation, priority 0001, published 2025)

Target: KRAS G12C and cRAF (Ras-binding domain) interaction (Homo sapiens (Human), UniProt P01116, C118S/C51S/C80L/G12C)
Experiment: Inhibition of KRAS G12C and cRAF binding (AlphaScreen)
Conditions: GMPPNP-loaded KRAS G12C, 19-20 hours incubation with compound; read-out: IC50 (Inhibition of KRAS G12C and cRAF Binding)
How it was run: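 IC50 values come from 4-parameter nonlinear regression of AlphaScreen signal (680 nm excitation, 570 nm emission). Compound plates sat 19-20 h at room temperature before RBD and donor/acceptor beads were added in Hepes pH 7.4 buffer with 150 mM NaCl, 5 mM MgCl2, 2% DMSO for 60-90 min; biotin-AviTag-GST replaced RBD to flag assay-technology interferers.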

KRAS G12C and cRAF (Ras-binding domain) interaction, sequence (P01116 other isoform, or with tags, fused parts or gaps G12C/C51S/C80L/C118S): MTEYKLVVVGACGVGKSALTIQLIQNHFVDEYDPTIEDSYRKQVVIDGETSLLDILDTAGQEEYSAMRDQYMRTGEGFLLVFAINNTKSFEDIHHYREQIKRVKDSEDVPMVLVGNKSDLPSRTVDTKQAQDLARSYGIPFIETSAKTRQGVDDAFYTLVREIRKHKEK

Structure (SMILES)	IC50
C#Cc1c(F)ccc2cccc(-c3ncc4c(N(C)[C@@H]5CCN(C(=O)/C=C/CN6CC[C@@H](OC)C6)C5)nc(OC[C@@]56CCCN5C[C@H](F)C6)nc4c3F)c12 [Example 287, (E)-1-((R)-3-((7-(8-ethynyl-7-fluoronaphthalen-1-yl)-8-fluoro-2-(((2R,7aS)-2-fluorotetrahydro-1H-pyrrolizin-7a(5H)-yl)methoxy)pyrido[4,3-d]pyrimidin-4-yl)(methyl)amino)pyrrolidin-1-yl)-4-((R)-3-methoxypyrrolidin-1-yl)but-2-en-1-one]	10 to 100 nM
C#Cc1c(F)ccc2cccc(-c3ncc4c(N(C)[C@@H]5CCN(C(=O)/C=C/CN6CC[C@H](F)C6)C5)nc(OC[C@@]56CCCN5C[C@H](F)C6)nc4c3F)c12 [Example 288, (E)-1-((R)-3-((7-(8-ethynyl-7-fluoronaphthalen-1-yl)-8-fluoro-2-(((2R,7aS)-2-fluorotetrahydro-1H-pyrrolizin-7a(5H)-yl)methoxy)pyrido[4,3-d]pyrimidin-4-yl)(methyl)amino)pyrrolidin-1-yl)-4-((S)-3-fluoropyrrolidin-1-yl)but-2-en-1-one]	10 to 100 nM
C#Cc1c(F)ccc2cccc(-c3ncc4c(N(C)[C@@H]5CCN(C(=O)/C=C/CN6CC[C@@H](F)C6)C5)nc(OC[C@@]56CCCN5C[C@H](F)C6)nc4c3F)c12 [Example 289, (E)-1-((R)-3-((7-(8-ethynyl-7-fluoronaphthalen-1-yl)-8-fluoro-2-(((2R,7aS)-2-fluorotetrahydro-1H-pyrrolizin-7a(5H)-yl)methoxy)pyrido[4,3-d]pyrimidin-4-yl)(methyl)amino)pyrrolidin-1-yl)-4-((R)-3-fluoropyrrolidin-1-yl)but-2-en-1-one]	10 to 100 nM
C#Cc1c(F)ccc2cccc(-c3ncc4c(N(C)[C@@H]5CCN(C(=O)/C=C/CN6C[C@H]7C[C@@H]6CO7)C5)nc(OC[C@@]56CCCN5C[C@H](F)C6)nc4c3F)c12 [Example 290, (E)-4-((1R,4R)-2-oxa-5-azabicyclo[2.2.1]heptan-5-yl)-1-((R)-3-((7-(8-ethynyl-7-fluoronaphthalen-1-yl)-8-fluoro-2-(((2R,7aS)-2-fluorotetrahydro-1H-pyrrolizin-7a(5H)-yl)methoxy)pyrido[4,3-d]pyrimidin-4-yl)(methyl)amino)pyrrolidin-1-yl)but-2-en-1-one]	< 10 nM
C#Cc1c(F)ccc2cccc(-c3ncc4c(N(C)[C@@H]5CCN(C(=O)/C=C/CN6C[C@@H]7C[C@H]6CO7)C5)nc(OC[C@@]56CCCN5C[C@H](F)C6)nc4c3F)c12 [Example 291, (E)-4-((1S,4S)-2-oxa-5-azabicyclo[2.2.1]heptan-5-yl)-1-((R)-3-((7-(8-ethynyl-7-fluoronaphthalen-1-yl)-8-fluoro-2-(((2R,7aS)-2-fluorotetrahydro-1H-pyrrolizin-7a(5H)-yl)methoxy)pyrido[4,3-d]pyrimidin-4-yl)(methyl)amino)pyrrolidin-1-yl)but-2-en-1-one]	< 10 nM
C#Cc1c(F)ccc2cccc(-c3ncc4c(N(C)[C@@H]5CCN(C(=O)/C=C/CN6[C@@H]7CC[C@H]6COC7)C5)nc(OC[C@@]56CCCN5C[C@H](F)C6)nc4c3F)c12 [Example 292, (E)-4-((1R,5S)-3-oxa-8-azabicyclo[3.2.1]octan-8-yl)-1-((R)-3-((7-(8-ethynyl-7-fluoronaphthalen-1-yl)-8-fluoro-2-(((2R,7aS)-2-fluorotetrahydro-1H-pyrrolizin-7a(5H)-yl)methoxy)pyrido[4,3-d]pyrimidin-4-yl)(methyl)amino)pyrrolidin-1-yl)but-2-en-1-one]	< 10 nM
C#Cc1c(F)ccc2cccc(-c3ncc4c(N(C)[C@@H]5CCN(C(=O)/C=C/CN6C7COCC6C7)C5)nc(OC[C@@]56CCCN5C[C@H](F)C6)nc4c3F)c12 [Example 293, (E)-4-(3-oxa-6-azabicyclo[3.1.1]heptan-6-yl)-1-((R)-3-((7-(8-ethynyl-7-fluoronaphthalen-1-yl)-8-fluoro-2-(((2R,7aS)-2-fluorotetrahydro-1H-pyrrolizin-7a(5H)-yl)methoxy)pyrido[4,3-d]pyrimidin-4-yl)(methyl)amino)pyrrolidin-1-yl)but-2-en-1-one]	< 10 nM
Cc1nc(C)c(F)c(/C=C/C(=O)N2CC[C@@H](N(C)c3nc(OC[C@@]45CCCN4C[C@H](F)C5)nc4c(F)c(-c5cccc6ccc(F)c(F)c56)ncc34)C2)n1 [Example 294, (E)-1-((R)-3-((7-(7,8-difluoronaphthalen-1-yl)-8-fluoro-2-(((2R,7aS)-2-fluorotetrahydro-1H-pyrrolizin-7a(5H)-yl)methoxy)pyrido[4,3-d]pyrimidin-4-yl)(methyl)amino)pyrrolidin-1-yl)-3-(5-fluoro-2,6-dimethylpyrimidin-4-yl)prop-2-en-1-one]	100 to 500 nM
Cc1ncc(F)c(/C=C/C(=O)N2CC[C@@H](N(C)c3nc(OC[C@@]45CCCN4C[C@H](F)C5)nc4c(F)c(-c5cccc6ccc(F)c(F)c56)ncc34)C2)n1 [Example 295, (E)-1-((R)-3-((7-(7,8-difluoronaphthalen-1-yl)-8-fluoro-2-(((2R,7aS)-2-fluorotetrahydro-1H-pyrrolizin-7a(5H)-yl)methoxy)pyrido[4,3-d]pyrimidin-4-yl)(methyl)amino)pyrrolidin-1-yl)-3-(5-fluoro-2-methylpyrimidin-4-yl)prop-2-en-1-one]	10 to 100 nM
Cc1cc(/C=C/C(=O)N2CC[C@@H](Nc3nc(OC[C@@]45CCCN4C[C@H](F)C5)nc4c(F)c(-c5cccc6ccc(F)c(F)c56)ncc34)C2)nc(C)n1 [Example 296, (E)-1-((R)-3-((7-(7,8-difluoronaphthalen-1-yl)-8-fluoro-2-(((2R,7aS)-2-fluorohexahydro-1H-pyrrolizin-7a-yl)methoxy)pyrido[4,3-d]pyrimidin-4-yl)amino)pyrrolidin-1-yl)-3-(2,6-dimethylpyrimidin-4-yl)prop-2-en-1-one]	10 to 100 nM
C=CC(=O)N1CC[C@@H](N(C)c2nc(OC[C@@]34CCCN3C[C@H](F)C4)nc3c(F)c(-c4cccc5cccc(C#N)c45)ncc23)C1 [Example 297, 8-(4-(((R)-1-acryloylpyrrolidin-3-yl)(methyl)amino)-8-fluoro-2-(((2R,7aS)-2-fluorotetrahydro-1H-pyrrolizin-7a(5H)-yl)methoxy)pyrido[4,3-d]pyrimidin-7-yl)-1-naphthonitrile]	100 to 500 nM
C#Cc1c(F)ccc2cccc(-c3ncc4c(N(C)[C@@H]5CCN(C(=O)C=C6CN(C)C6)C5)nc(OC[C@@]56CCCN5C[C@H](F)C6)nc4c3F)c12 [Example 298, 1-((R)-3-((7-(8-ethynyl-7-fluoronaphthalen-1-yl)-8-fluoro-2-(((2R,7aS)-2-fluorotetrahydro-1H-pyrrolizin-7a(5H)-yl)methoxy)pyrido[4,3-d]pyrimidin-4-yl)(methyl)amino)pyrrolidin-1-yl)-2-(1-methylazetidin-3-ylidene)ethan-1-one]	< 10 nM
CN1CC(=CC(=O)N2CC[C@@H](N(C)c3nc(OC[C@@]45CCCN4C[C@H](F)C5)nc4c(F)c(-c5cccc6ccc(F)c(F)c56)ncc34)C2)C1 [Example 299, 1-((R)-3-((7-(7,8-difluoronaphthalen-1-yl)-8-fluoro-2-(((2R,7aS)-2-fluorotetrahydro-1H-pyrrolizin-7a(5H)-yl)methoxy)pyrido[4,3-d]pyrimidin-4-yl)(methyl)amino)pyrrolidin-1-yl)-2-(1-methylazetidin-3-ylidene)ethan-1-one]	< 10 nM
CN1CC(=CC(=O)N2CC[C@@H](N(C)c3nc(OC[C@@]45CCCN4C[C@H](F)C5)nc4c(F)c(-c5cccc6ccc(F)c(Cl)c56)ncc34)C2)C1 [Example 300, 1-((R)-3-((7-(8-chloro-7-fluoronaphthalen-1-yl)-8-fluoro-2-(((2R,7aS)-2-fluorotetrahydro-1H-pyrrolizin-7a(5H)-yl)methoxy)pyrido[4,3-d]pyrimidin-4-yl)(methyl)amino)pyrrolidin-1-yl)-2-(1-methylazetidin-3-ylidene)ethan-1-one]	10 to 100 nM
C#Cc1c(F)ccc2cccc(-c3ncc4c(N(C)[C@@H]5CCN(C(=O)/C=C/c6nc(C)ncc6F)C5)nc(OC[C@@]56CCCN5C[C@H](F)C6)nc4c3F)c12 [Example 301, (E)-1-((R)-3-((7-(8-ethynyl-7-fluoronaphthalen-1-yl)-8-fluoro-2-(((2R,7aS)-2-fluorohexahydro-1H-pyrrolizin-7a-yl)methoxy)pyrido[4,3-d]pyrimidin-4-yl)(methyl)amino)pyrrolidin-1-yl)-3-(5-fluoro-2-methylpyrimidin-4-yl)prop-2-en-1-one]	10 to 100 nM
C#Cc1c(F)ccc2cccc(-c3ncc4c(N(C)[C@@H]5CCN(C(=O)/C=C/c6nc(C)nc(C)c6F)C5)nc(OC[C@@]56CCCN5C[C@H](F)C6)nc4c3F)c12 [Example 302, (E)-1-((R)-3-((7-(8-ethynyl-7-fluoronaphthalen-1-yl)-8-fluoro-2-(((2R,7aS)-2-fluorotetrahydro-1H-pyrrolizin-7a(5H)-yl)methoxy)pyrido[4,3-d]pyrimidin-4-yl)(methyl)amino)pyrrolidin-1-yl)-3-(5-fluoro-2,6-dimethylpyrimidin-4-yl)prop-2-en-1-one]	10 to 100 nM
C#Cc1c(F)ccc2cccc(-c3ncc4c(N(C)[C@@H]5CCN(C(=O)C=C)C5)nc(OCC56CCCN5CCC6)nc4c3F)c12 [Example 303, (R)-1-(3-((7-(8-ethynyl-7-fluoronaphthalen-1-yl)-8-fluoro-2-((tetrahydro-1H-pyrrolizin-7a(5H)-yl)methoxy)pyrido[4,3-d]pyrimidin-4-yl)(methyl)amino)pyrrolidin-1-yl)prop-2-en-1-one]	< 10 nM
C=CC(=O)N1CC[C@@H](N(C)c2nc(OC[C@@]34CCCN3C[C@H](F)C4)nc3c(F)c(-c4cccc5cccc(C6CC6)c45)ncc23)C1 [Example 304, 1-((R)-3-((7-(8-cyclopropylnaphthalen-1-yl)-8-fluoro-2-(((2R,7aS)-2-fluorotetrahydro-1H-pyrrolizin-7a(5H)-yl)methoxy)pyrido[4,3-d]pyrimidin-4-yl)(methyl)amino)pyrrolidin-1-yl)prop-2-en-1-one]	> 500 nM
